{"source": "patent US10800791B2", "about": "“Triazole ACC inhibitors and uses thereof” (Gilead Apollo, LLC, priority 2015, dated 2020)", "key": {"C. parapsilosis": {"tested_on": "C. parapsilosis", "test": "Antifungal Activity Assay (broth microtiter MIC), C. parapsilosis", "assay_type": "cell-based, Candida parapsilosis", "details": "Lodderomyces parapsilosis, ATCC22019, 48 h", "how_it_was_run": "(§1)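 CLSI M27-A3 broth microdilution in RPMI 1640+MOPS, final inoculum 2.5×10^3 CFU/mL from overnight Sabouraud cultures grown at 35 °C. MIC read visually at 48 h against growth control.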"}, "[1]": {"tested_on": "Fusarium moniliforme (Fm)", "test": "Growth inhibition assay of fungal pathogens, Fm", "assay_type": "cell-based", "details": "for IC90: Fusarium verticillioides, 48 h, read-out: Concentration at 90% Inhibition Fm", "how_it_was_run": "(§2)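 Spores diluted in 17% V8 liquid media and incubated with compound at final 50, 10, 2 ppm or 2, 0.4, 0.08 ppm (2% DMSO). OD600 plus visual ratings at 24 and 48 hours, blank-subtracted; percent growth inhibition from 48 h readings relative to 2% DMSO control.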"}, "Septoria tritici (St)": {"tested_on": "Septoria tritici (St)", "test": "Growth inhibition assay of fungal pathogens, St", "assay_type": "cell-based", "details": "Zymoseptoria tritici, 48 h", "how_it_was_run": "as §2"}, "C. albicans": {"tested_on": "C. albicans", "test": "Antifungal Activity Assay (broth microtiter MIC), C. albicans", "assay_type": "cell-based, Candida albicans", "details": "Candida albicans, ATCC90028, 48 h", "how_it_was_run": "as §1"}, "[2]": {"tested_on": "Phytophthora capsici (Pc)", "test": "Growth inhibition assay of fungal pathogens, Pc", "assay_type": "cell-based", "details": "48 h", "how_it_was_run": "as §2"}, "C. krusei": {"tested_on": "C. krusei", "test": "Antifungal Activity Assay (broth microtiter MIC), C. krusei", "assay_type": "cell-based, Candida krusei", "details": "Pichia kudriavzevii, ATCC6258, 48 h", "how_it_was_run": "as §1"}, "[3]": {"tested_on": "Collectotrichum graminicola (Cg)", "test": "Growth inhibition assay of fungal pathogens, Cg", "assay_type": "cell-based", "details": "48 h", "how_it_was_run": "as §2"}, "Diplodia maydis (Dm)": {"tested_on": "Diplodia maydis (Dm)", "test": "Growth inhibition assay of fungal pathogens, Dm", "assay_type": "cell-based", "details": "Stenocarpella maydis, 48 h", "how_it_was_run": "as §2"}, "fungal (fACC2)": {"target": "fungal (fACC2) (UniProt Q00955)", "sequence (Q00955 whole entry)": "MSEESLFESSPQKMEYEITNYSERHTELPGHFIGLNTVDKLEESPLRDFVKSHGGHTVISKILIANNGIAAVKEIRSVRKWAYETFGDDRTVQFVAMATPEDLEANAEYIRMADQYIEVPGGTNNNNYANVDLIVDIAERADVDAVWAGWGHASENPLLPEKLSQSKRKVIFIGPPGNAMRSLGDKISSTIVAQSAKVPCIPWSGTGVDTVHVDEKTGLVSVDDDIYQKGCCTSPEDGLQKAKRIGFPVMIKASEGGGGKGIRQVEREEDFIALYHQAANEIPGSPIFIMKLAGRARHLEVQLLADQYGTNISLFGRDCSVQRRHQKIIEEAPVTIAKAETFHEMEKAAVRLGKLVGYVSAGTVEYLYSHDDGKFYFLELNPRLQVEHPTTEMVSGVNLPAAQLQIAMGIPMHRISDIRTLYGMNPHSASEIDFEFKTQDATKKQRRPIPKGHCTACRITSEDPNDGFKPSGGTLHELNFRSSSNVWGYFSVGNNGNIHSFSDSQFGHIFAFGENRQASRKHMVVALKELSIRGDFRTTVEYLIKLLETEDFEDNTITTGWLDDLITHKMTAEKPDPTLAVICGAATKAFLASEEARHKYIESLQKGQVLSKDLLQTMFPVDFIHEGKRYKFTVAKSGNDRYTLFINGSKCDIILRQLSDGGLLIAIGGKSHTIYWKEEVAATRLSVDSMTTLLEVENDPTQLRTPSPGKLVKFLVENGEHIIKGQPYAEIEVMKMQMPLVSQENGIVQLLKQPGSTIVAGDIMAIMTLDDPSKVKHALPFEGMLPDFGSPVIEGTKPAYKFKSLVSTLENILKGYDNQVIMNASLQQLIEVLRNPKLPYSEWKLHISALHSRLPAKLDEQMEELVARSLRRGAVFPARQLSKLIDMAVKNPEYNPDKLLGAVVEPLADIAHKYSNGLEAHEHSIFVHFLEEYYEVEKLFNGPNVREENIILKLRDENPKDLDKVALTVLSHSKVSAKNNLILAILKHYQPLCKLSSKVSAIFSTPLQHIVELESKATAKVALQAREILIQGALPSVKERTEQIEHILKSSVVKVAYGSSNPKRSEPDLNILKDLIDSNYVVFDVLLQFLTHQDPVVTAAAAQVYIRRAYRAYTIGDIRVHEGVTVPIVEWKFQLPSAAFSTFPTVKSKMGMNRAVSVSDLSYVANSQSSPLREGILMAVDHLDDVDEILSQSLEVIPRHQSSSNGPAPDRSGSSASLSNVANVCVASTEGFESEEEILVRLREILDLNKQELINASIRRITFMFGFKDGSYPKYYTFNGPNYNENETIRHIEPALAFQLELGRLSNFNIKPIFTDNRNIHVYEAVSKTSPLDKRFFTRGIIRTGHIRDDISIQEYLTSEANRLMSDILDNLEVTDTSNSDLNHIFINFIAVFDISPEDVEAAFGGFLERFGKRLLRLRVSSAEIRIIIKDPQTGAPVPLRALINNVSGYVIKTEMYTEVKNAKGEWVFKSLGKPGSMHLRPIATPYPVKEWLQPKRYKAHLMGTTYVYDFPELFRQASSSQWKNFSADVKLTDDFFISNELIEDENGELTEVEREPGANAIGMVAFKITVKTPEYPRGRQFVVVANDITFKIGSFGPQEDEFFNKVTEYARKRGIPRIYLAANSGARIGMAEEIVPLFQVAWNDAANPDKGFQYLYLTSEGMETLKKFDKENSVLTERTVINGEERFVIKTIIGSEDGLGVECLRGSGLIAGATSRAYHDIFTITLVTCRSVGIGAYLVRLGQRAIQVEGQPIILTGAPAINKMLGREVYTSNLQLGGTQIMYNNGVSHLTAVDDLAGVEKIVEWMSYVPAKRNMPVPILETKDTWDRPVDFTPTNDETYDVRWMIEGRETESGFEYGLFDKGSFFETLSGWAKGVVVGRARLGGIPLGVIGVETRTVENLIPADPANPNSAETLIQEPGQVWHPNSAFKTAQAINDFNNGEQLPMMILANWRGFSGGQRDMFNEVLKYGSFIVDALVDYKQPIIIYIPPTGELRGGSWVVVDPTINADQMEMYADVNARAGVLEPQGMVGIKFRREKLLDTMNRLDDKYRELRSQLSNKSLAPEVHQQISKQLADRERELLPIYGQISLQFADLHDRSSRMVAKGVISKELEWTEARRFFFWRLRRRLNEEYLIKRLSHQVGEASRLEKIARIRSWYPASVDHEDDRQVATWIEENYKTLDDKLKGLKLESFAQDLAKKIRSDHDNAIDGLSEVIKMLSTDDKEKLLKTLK", "details": "read-out: fACC2 (in vitro ACC2 Inhibition Assay, IC50), ADP-Glo, 5 nM ACC2, 20 μM ATP, 20 μM acetyl-CoA"}, "Botrtyis cinerea (Bc)": {"tested_on": "Botrtyis cinerea (Bc)", "test": "Growth inhibition assay of fungal pathogens, Bc", "assay_type": "cell-based", "details": "48 h", "how_it_was_run": "as §2"}, "[4]": {"tested_on": "Fusarium virguliforme (Fv)", "test": "Growth inhibition assay of fungal pathogens, Fv", "assay_type": "cell-based", "details": "48 h", "how_it_was_run": "as §2"}, "[5]": {"details": "Fusarium moniliforme, growth inhibition at 48 hours vs 2% DMSO control"}}, "note": "Where two headings read alike, the source gives them in different places.", "data": [{"smiles": "COc1ccc(F)cc1[C@H](Cn1c(=O)n(C(C)(C)C(=O)NC(C)C)c(=O)c2c(C)c(-n3nccn3)sc21)OC[C@H](C)O", "note": "[Compound I-47, 2-(1-((R)-2-(5-fluoro-2-methoxyphenyl)-2-((S)-2-hydroxypropoxy)ethyl)-5-methyl-2,4-dioxo-6-(2H-1,2,3-triazol-2-yl)-1,4-dihydro-thieno[2,3-d]pyrimidin-3(2H)-yl)-N-isopropyl-2-methylpropanamide]", "values": [{"measurement": "MIC", "setting": "C. parapsilosis; read-out: MIC, C. parapsilosis ATCC 22019, Table 3a, 3 replicates, MIC recorded at 48 h", "result": "0.25 to 1", "unit": "µg/mL"}, {"measurement": "MIC", "setting": "C. parapsilosis; read-out: MIC, C. parapsilosis ATCC 22019, Table 3b (additional results), 3 replicates, MIC recorded at 48 h", "result": "1.01 to 2", "unit": "µg/mL"}, {"measurement": "Concentration at 90% Inhibition Fm", "setting": "[1]; [5]", "result": "AA (compound concentration of 0.08 ppm at 90% inhibition of fungal pathogens)"}, {"measurement": "IC90", "setting": "[1]", "result": 0.08, "unit": "µg/mL"}, {"measurement": "IC90", "setting": "Septoria tritici (St); read-out: Concentration at 90% Inhibition St, Septoria tritici, growth inhibition at 48 hours vs 2% DMSO control", "result": 10, "unit": "µg/mL"}, {"measurement": "IC90", "setting": "Septoria tritici (St); read-out: Concentration at 90% Inhibition St, Septoria tritici, growth inhibition vs 2% DMSO control at 48 hours", "result": "> 50", "unit": "µg/mL"}, {"measurement": "MIC", "setting": "C. albicans; read-out: MIC, C. albicans ATCC 90028, Table 3a, 3 replicates, MIC recorded at 48 h", "result": "0.25 to 1", "unit": "µg/mL"}, {"measurement": "MIC", "setting": "C. albicans; read-out: MIC, C. albicans ATCC 90028, Table 3b (additional results), 3 replicates, MIC recorded at 48 h", "result": "0.25 to 1", "unit": "µg/mL"}, {"measurement": "IC90", "setting": "[2]; read-out: Concentration at 90% Inhibition Pc, Phytophthora capsici, growth inhibition at 48 hours vs 2% DMSO control", "result": "> 50", "unit": "µg/mL"}, {"measurement": "IC90", "setting": "[2]; read-out: Concentration at 90% Inhibition Pc, Phytophthora capsici, growth inhibition vs 2% DMSO control at 48 hours", "result": "> 50", "unit": "µg/mL"}, {"measurement": "MIC", "setting": "C. krusei; read-out: MIC, C. krusei ATCC 6258, Table 3a, 3 replicates, MIC recorded at 48 h", "result": "0.06 to 0.24", "unit": "µg/mL"}, {"measurement": "MIC", "setting": "C. krusei; read-out: MIC, C. krusei ATCC 6258, Table 3b (additional results), 3 replicates, MIC recorded at 48 h", "result": "1.01 to 2", "unit": "µg/mL"}, {"measurement": "IC90", "setting": "[3]; read-out: Concentration at 90% Inhibition Cg, Collectotrichum graminicola, growth inhibition at 48 hours vs 2% DMSO control", "result": 0.4, "unit": "µg/mL"}, {"measurement": "IC90", "setting": "[3]; read-out: Concentration at 90% Inhibition Cg, Collectotrichum graminicola, growth inhibition vs 2% DMSO control at 48 hours", "result": 0.4, "unit": "µg/mL"}, {"measurement": "IC90", "setting": "Diplodia maydis (Dm); read-out: Concentration at 90% Inhibition Dm, Diplodia maydis, growth inhibition at 48 hours vs 2% DMSO control", "result": 0.4, "unit": "µg/mL"}, {"measurement": "IC90", "setting": "Diplodia maydis (Dm); read-out: Concentration at 90% Inhibition Dm, Diplodia maydis, growth inhibition vs 2% DMSO control at 48 hours", "result": 0.4, "unit": "µg/mL"}, {"measurement": "IC50", "setting": "fungal (fACC2); Table 2a", "result": "1 to 5", "unit": "nM"}, {"measurement": "IC50", "setting": "fungal (fACC2); Table 2b, additional results", "result": "1 to 5", "unit": "nM"}, {"measurement": "IC90", "setting": "Botrtyis cinerea (Bc); read-out: Concentration at 90% Inhibition Bc, Botrtyis cinerea, growth inhibition at 48 hours vs 2% DMSO control", "result": 0.4, "unit": "µg/mL"}, {"measurement": "IC90", "setting": "Botrtyis cinerea (Bc); read-out: Concentration at 90% Inhibition Bc, Botrtyis cinerea, growth inhibition vs 2% DMSO control at 48 hours", "result": 0.4, "unit": "µg/mL"}, {"measurement": "IC90", "setting": "[4]; read-out: Concentration at 90% Inhibition Fv, Fusarium virguliforme, growth inhibition at 48 hours vs 2% DMSO control", "result": 0.4, "unit": "µg/mL"}, {"measurement": "IC90", "setting": "[4]; read-out: Concentration at 90% Inhibition Fv, Fusarium virguliforme, growth inhibition vs 2% DMSO control at 48 hours", "result": 0.4, "unit": "µg/mL"}]}, {"smiles": "COc1ccc(F)cc1[C@H](Cn1c(=O)n(C(C)(C)C(=O)N2CCCC2)c(=O)c2c(C)c(-n3nccn3)sc21)OC[C@H](C)O", "note": "[Compound I-48, 1-((R)-2-(5-fluoro-2-methoxyphenyl)-2-((S)-2-hydroxy-propoxy)ethyl)-5-methyl-3-(2-methyl-1-oxo-1-(pyrrolidin-1-yl)propan-2-yl)-6-(2H-1,2,3-triazol-2-yl)thieno[2,3-d]pyrimidine-2,4(1H,3H)-dione]", "values": [{"measurement": "MIC", "setting": "C. parapsilosis; Table 3a, ATCC 22019, 3 replicates, MIC recorded at 48 h, read-out: MIC, C. parapsilosis ATCC 22019", "result": "2.1 to 4", "unit": "µg/mL"}, {"measurement": "MIC", "setting": "C. parapsilosis; Table 3b (additional results), ATCC 22019, 3 replicates, MIC recorded at 48 h, read-out: MIC, C. parapsilosis ATCC 22019", "result": "1.01 to 2", "unit": "µg/mL"}, {"measurement": "IC90", "setting": "[1]; [5]", "result": 0.4, "unit": "µg/mL"}, {"measurement": "IC90", "setting": "[1]; Fusarium moniliforme, growth inhibition vs 2% DMSO control at 48 hours", "result": 0.4, "unit": "µg/mL"}, {"measurement": "IC90", "setting": "Septoria tritici (St); Septoria tritici, growth inhibition at 48 hours vs 2% DMSO control, read-out: Concentration at 90% Inhibition St", "result": "> 50", "unit": "µg/mL"}, {"measurement": "IC90", "setting": "Septoria tritici (St); Septoria tritici, growth inhibition vs 2% DMSO control at 48 hours, read-out: Concentration at 90% Inhibition St", "result": "> 50", "unit": "µg/mL"}, {"measurement": "MIC", "setting": "C. albicans; Table 3a, ATCC 90028, 3 replicates, MIC recorded at 48 h, read-out: MIC, C. albicans ATCC 90028", "result": "1.1 to 2", "unit": "µg/mL"}, {"measurement": "MIC", "setting": "C. albicans; Table 3b (additional results), ATCC 90028, 3 replicates, MIC recorded at 48 h, read-out: MIC, C. albicans ATCC 90028", "result": "0.25 to 1", "unit": "µg/mL"}, {"measurement": "IC90", "setting": "[2]; growth inhibition at 48 hours vs 2% DMSO control, read-out: Concentration at 90% Inhibition Pc", "result": "> 50", "unit": "µg/mL"}, {"measurement": "IC90", "setting": "[2]; growth inhibition vs 2% DMSO control at 48 hours, read-out: Concentration at 90% Inhibition Pc", "result": "> 50", "unit": "µg/mL"}, {"measurement": "MIC", "setting": "C. krusei; Table 3a, ATCC 6258, 3 replicates, MIC recorded at 48 h, read-out: MIC, C. krusei ATCC 6258", "result": "1.1 to 2", "unit": "µg/mL"}, {"measurement": "MIC", "setting": "C. krusei; Table 3b (additional results), ATCC 6258, 3 replicates, MIC recorded at 48 h, read-out: MIC, C. krusei ATCC 6258", "result": "2.01 to 4", "unit": "µg/mL"}, {"measurement": "IC90", "setting": "[3]; Collectotrichum graminicola, growth inhibition at 48 hours vs 2% DMSO control, read-out: Concentration at 90% Inhibition Cg", "result": 0.4, "unit": "µg/mL"}, {"measurement": "IC90", "setting": "[3]; Collectotrichum graminicola, growth inhibition vs 2% DMSO control at 48 hours, read-out: Concentration at 90% Inhibition Cg", "result": 0.4, "unit": "µg/mL"}, {"measurement": "IC90", "setting": "Diplodia maydis (Dm); Diplodia maydis, growth inhibition at 48 hours vs 2% DMSO control, read-out: Concentration at 90% Inhibition Dm", "result": 2, "unit": "µg/mL"}, {"measurement": "IC90", "setting": "Diplodia maydis (Dm); Diplodia maydis, growth inhibition vs 2% DMSO control at 48 hours, read-out: Concentration at 90% Inhibition Dm", "result": 2, "unit": "µg/mL"}, {"measurement": "IC50", "setting": "fungal (fACC2); Table 2a", "result": "0.4 to 1", "unit": "nM"}, {"measurement": "IC50", "setting": "fungal (fACC2); Table 2b, additional results", "result": "0.3 to 1", "unit": "nM"}, {"measurement": "IC90", "setting": "Botrtyis cinerea (Bc); Botrtyis cinerea, growth inhibition at 48 hours vs 2% DMSO control, read-out: Concentration at 90% Inhibition Bc", "result": 2, "unit": "µg/mL"}, {"measurement": "IC90", "setting": "Botrtyis cinerea (Bc); Botrtyis cinerea, growth inhibition vs 2% DMSO control at 48 hours, read-out: Concentration at 90% Inhibition Bc", "result": 2, "unit": "µg/mL"}, {"measurement": "IC90", "setting": "[4]; growth inhibition at 48 hours vs 2% DMSO control, read-out: Concentration at 90% Inhibition Fv", "result": 0.4, "unit": "µg/mL"}, {"measurement": "IC90", "setting": "[4]; growth inhibition vs 2% DMSO control at 48 hours, read-out: Concentration at 90% Inhibition Fv", "result": 0.4, "unit": "µg/mL"}]}]}
